Patent publication US20250270170A1, “2,3-DIMETHOXY-5-METHYL-1,4-BENZOQUINONE ALKYL ALCOHOL DERIVATIVE AND USE THEREOF” (BEIJING ANJIANXI BIO-MEDICAL TECHNOLOGY CO., LTD., priority 2021, published 2025)
Marks after values point to notes of the source that are not given here.

Key:
[1] = test system: human esophageal cancer ECA109 transplanted tumor; test: Example 8: tumor growth in ECA109 transplanted tumor model; type: in vivo, nude mice; settings: DDP 5 mg/kg i.p. QW×4
Excerpt: The assay animals, calculation of tumor volume (TV), end of assay, data recording, calculation formula of tumor growth inhibition rate TGI (%), and statistical analysis method were the same as those in Example 3; the preparation of the administration formulation of the compound of formula (I) was the same as that in Example 5. An appropriate amount of CMC-Na solid was weighed, and an appropriate volume of deionized water was firstly added. The mixture was vortexed and stirred until the solid was completely dispersed and evenly distributed, to give a 0.5% CMC-Na aqueous solution, which was stored at 2 to 8° C. in a refrigerator. An appropriate amount of DDP was weighed and put into a glass bottle, and an appropriate amount of physiological saline was added to the bottle. […] This solution was prepared before each administration. Human esophageal cancer cells ECA109 were obtained from the Cell Bank of Wuhan University (CCTCC, cryopreserved in liquid nitrogen in the laboratory). […] The cells were pipetted with a pipette to disperse them evenly, and the cells were put into a 50-mL centrifuge tube, which was placed in an ice box. A 1-mL syringe was used to draw the cell suspension, which was injected subcutaneously into the axilla of the front right limb of a […]. Each animal was inoculated with 200 μL (1.0×10^7 cells/mouse) to establish an ECA109 transplanted tumor model in nude mice. After the inoculation, the animal status and tumor growth were regularly observed, and the tumor diameter was measured using an electronic vernier caliper. The data were input into an Excel spreadsheet to calculate the tumor volume. When the tumor volume reached 100 to 300 mm^3, animals in good health and with similar tumor volumes were selected and divided into groups using randomized block method. The day of grouping was regarded as the first day of the assay (D1). After the start of the assay, the tumor diameter was measured twice a week, the tumor volume was calculated, and the animal body weight was also weighed and recorded. [table]

ICR mice = test: Example 6: repeated gavage administration toxicity for 2 weeks; type: in vivo
Excerpt: The compound of formula (I) was gavagely administered continuously to ICR mice for 14 days, to evaluate the nature, degree, and time-effect relationship of the toxic reactions that the compound of formula (I) may cause, and to provide reference information for the subsequent research.
Preparation of the administration formulation of the test sample in each dosage group: The preparation of the test sample was the same as that in Example 5. When the test sample was used, a final volume mark was marked on a container, and a required amount of the test sample was weighed (weighing weight of the test sample=theoretical dosage/conversion factor) into a container. An appropriate amount of solvent was firstly added, and the mixture was stirred and mixed thoroughly, and sonicated if necessary. The solvent was further added to the final volume mark to dilute and mix evenly, to give a visually uniform formulation, which was verified by the methodology. […] The administration formulation of the test sample with a concentration range of 0.01 mg/mL to 60 mg/mL was stable within 8 days when being stored airtightly at 2° C. to 8
Route of Administration: Oral Gavage
Administered once a day; while maintaining the same administration period every day.
Administered continuously for 14 days
The dosage was calculated based on the latest animal body weight.
The administration formulation of the test sample was stirred at room temperature for at least 10 minutes, and suspended uniformly with visual inspection before the administration. The administration formulation of the test sample was required to be continually stirred during the administration.
Observation indicators: observation of general physical signs, detailed clinical observation, body weight, and food intake were included.

[2] = 100 mg/kg dosage group, surviving animals

## N.N.[Cl][Pt][Cl] [DDP, cisplatin]
[1]; D1
  Mean tumor volume: 193 ± 9 mm^3
[1]; D5
  Mean tumor volume: 204 ± 5 mm^3
  tumor growth inhibition rate (TGI): (64%)
[1]; D8
  Mean tumor volume: 203 ± 11** mm^3
  tumor growth inhibition rate (TGI): (87%)
[1]; D12
  Mean tumor volume: 215 ± 10** mm^3
  tumor growth inhibition rate (TGI): (79%)
[1]; D15
  Mean tumor volume: 224 ± 8** mm^3
  tumor growth inhibition rate (TGI): (79%)
[1]; D19
  Mean tumor volume: 247 ± 8** mm^3
  tumor growth inhibition rate (TGI): (67%)
[1]; D22
  Mean tumor volume: 259 ± 8** mm^3
  tumor growth inhibition rate (TGI): (63%)
[1]; D26
  Mean tumor volume: 276 ± 9** mm^3
  tumor growth inhibition rate (TGI): (58%)
[1]; D29
  Mean tumor volume: 285 ± 9** mm^3
  tumor growth inhibition rate (TGI): (59%)
[1]; D33
  Mean tumor volume: 259 ± 12** mm^3
  tumor growth inhibition rate (TGI): (73%)
[1]; D36
  Mean tumor volume: 292 ± 11** mm^3
  tumor growth inhibition rate (TGI): (60%)

## COC1=C(OC)C(=O)C(CCCCCCCCCCOC(=O)Cc2c(C)n(C(=O)c3ccc(Cl)cc3)c3ccc(OC)cc23)=C(C)C1=O [compound of formula (I)]
ICR mice; 25 mg/kg dosage group
  abnormal reactions: No abnormal reactions
  body weight: increased normally
ICR mice; 25 mg/kg dosage group, 20 animals per group, gavage once a day, 14 days
  animals found dead: No animal was found dead
ICR mice; 50 mg/kg dosage group
  abnormal reactions: No abnormal reactions
  body weight: increased normally
ICR mice; 50 mg/kg dosage group, 20 animals per group, gavage once a day, 14 days
  animals found dead: No animal was found dead
ICR mice; [2]
  abnormal reactions: No abnormal reactions
  body weight: increased normally
ICR mice; 100 mg/kg dosage group, 20 animals per group, gavage once a day, 14 days
  animals found dead: 3
ICR mice; 300 mg/kg dosage group, 20 animals per group, gavage once a day, 14 days
  animals found dead: 10
ICR mice; 1000 mg/kg dosage group, 20 animals per group, gavage once a day
  animals found dead: 13
ICR mice; 1000 mg/kg/d dosage group, from D3 to D6, administration then stopped
  animals found dead: 4
